For test [1], the target named is Sc condensin holocomplex (Saccharomyces cerevisiae, UniProt P38989+Q12267). The conditions noted are these: with or without DNA.
Test [2] has as its target Ct Smc4hd–Brn1C (Thermochaetoides thermophila, UniProt G0S2G2, DEL467-1366/Q421L). The test is described as follows: biochemical.

Each structure is given as a SMILES string.

Chain of Ct Smc4hd–Brn1C (G0S2G2 264-466 Q421L): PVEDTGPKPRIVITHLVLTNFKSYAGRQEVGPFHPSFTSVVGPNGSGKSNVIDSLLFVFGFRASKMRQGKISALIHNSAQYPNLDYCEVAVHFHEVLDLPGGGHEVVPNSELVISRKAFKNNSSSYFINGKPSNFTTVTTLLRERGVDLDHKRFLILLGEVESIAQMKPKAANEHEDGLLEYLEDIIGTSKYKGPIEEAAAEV
Chain of Ct Smc4hd–Brn1C (G0S2G2 1367-1542, stated change not applied): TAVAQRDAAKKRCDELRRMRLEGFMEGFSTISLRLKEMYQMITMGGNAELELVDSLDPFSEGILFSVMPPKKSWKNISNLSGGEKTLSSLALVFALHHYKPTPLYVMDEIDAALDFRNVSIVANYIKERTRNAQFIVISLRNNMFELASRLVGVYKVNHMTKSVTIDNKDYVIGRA
Chain of Ct Smc4hd–Brn1C (G0SBJ6 765-898 partner): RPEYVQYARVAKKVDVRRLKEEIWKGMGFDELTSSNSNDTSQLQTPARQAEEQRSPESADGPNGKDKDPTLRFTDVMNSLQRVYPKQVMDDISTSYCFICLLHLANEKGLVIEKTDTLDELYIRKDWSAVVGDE

On to `Nc1ncnc2c1ncn2[C@@H]1O[C@H](COP(=O)(O)OP(=O)(O)OP(=O)(O)O)[C@@H](O)[C@H]1O` [ATP], for which, in test [1], the ATP hydrolysis assay entry was “basal and DNA-stimulated ATPase activities of condensin holocomplexes”. In test [2], the affinity, expressed as Kd, was 18.4 µM.
